Reference: article PMC10766610, “DCAF1-based PROTACs with activity against clinically validated targets overcoming intrinsic- and acquired-degrader resistance” (Nature Communications, 2024)
“Also recorded” adds a separate entry of the source.

Assays:
TMD8 BTK-GFP/mCh cells = experiment: Viability by FSC/SSC gate (flow cytometry) in TMD8 BTK-GFP/mCh cells; assay type: cell-based, human
Method in brief: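 TMD8 BTK-GFP/mCh cells (25,000/well) dosed with compound for 24 h and analysed by flow cytometry. Viability is the decline in percentage of single cells within an FSC/SSC gate defined by DMSO-treated cells; three biological replicates, 4-parameter logistic fit.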

HEK293T cells = experiment: Whole proteomics profile, DDa-1 vs (13), HEK293T cells; assay type: cell-based, human; settings: 5 µM DDa-1 vs 5 µM (13), 6 h
Description: HEK293T and TMD8 cells were cultured according to protocol and 3 million cells were plated per sample and recovered for 24 h. The following day, cells were treated with indicated compounds at corresponding concentrations for 6 h. Cells were then harvested and washed 2× with PBS before removing all liquid and snap freezing in liquid nitrogen before sample preparation for proteomics.
TMT-labeled peptides were generated with the iST-NHS kit (PreOmics) and TMT10plex (duplicates per condition) or TMT18plex (triplicates per condition) reagent (Thermo Fisher Scientific). Equal amounts of labeled peptides were pooled and separated on a high pH fractionation system with a water-acetonitrile gradient containing 10 mM ammonium formate, pH 11[88]. Alternating rows of the resulting 72 fractions were pooled into 24 samples, dried and resuspended in water containing 0.1% formic acid.
The LC-MS analysis was carried out on an EASY-nLC 1200 system coupled to an Orbitrap Fusion Lumos Tribrid mass spectrometer (Thermo Fisher Scientific). […]
LC-MS raw files were analyzed with Proteome Discoverer 2.4 (Thermo Fisher Scientific). […] TMT reporter ions of the MS3 spectra were integrated with a 20 ppm tolerance and the reporter ion intensities were used for quantification. […] Protein relative quantification was performed using an in-house developed R (v.3.6) script. […]

SMILES	concentrations with loss of viability (TMD8 BTK-GFP/mCh cells; TMD8 BTK-GFP/mCh, 24 h) [µM]	concentrations leading to cellular toxicity (TMD8 BTK-GFP/mCh cells; discussion) [µM]	kinases with significant protein level reduction (LC/MS proteomics) (HEK293T cells)
CC(=O)N1CCN(c2ccc3c(NCCN)nc(C4(c5ccc(Cl)cc5)CCCCC4)nc3c2)CC1 [compound 13]	> 5	5 to 10	
Cc1nc(Nc2ncc(C(=O)Nc3c(C)cccc3Cl)s2)cc(N2CCC(OC3CCN(CCCCCCCC(=O)N4CCN(c5ccc6c(NCCN)nc(C7(c8ccc(Cl)cc8)CCCCC7)nc6c5)CC4)CC3)CC2)n1 [DDa-1]			CSK and LIMK2; also recorded: TEC and TNK2
